According to PubChem BioAssay AID2060497 (Molecular Pharmacology Branch, DTP, NCI, 2025):

Tested on: 317291-083-R-J1-PDC complex spheroids, viability
Experiment: Anticancer human tumor 317291-083-R-J1-PDC patient-derived soft tissue sarcoma cell line growth inhibition [GQUAD]
Details: for IC50: curve of first compound; for viability, T/C: stronger effect = lower value
Text: DNA G-quadruplex Stabilizer Agents in Combinations in Complex Spheroids
A high-throughput screen of multi-cell type tumor spheroids was designed to identify active combinations of DNA G-quadruplex stabilizer agents and targeted small molecules. Complex spheroids include a stromal component modeled by human endothelial cells (HUVEC) and fibroblasts modeled by human mesenchymal stem cells (MSCs). The concentration ranges selected for each drug and investigational agent were based upon clinically achievable concentrations if the clinical Cmax of the agent was known.
Compounds. The drugs and investigational agents: pidnarulex (CX-5461; NSC782164), APTO-253 (NSC789042), BRACO-19 (NSC847499), peposertib (NSC802822), ceralasertib (NSC780249), elimusertib (NSC800525), camonsertib (NSC841442), AZD-1390 (NSC803789), olaparib (NSC753686), talazoparib (NSC767125), ART-558 (NSC835418), sotorasib (NSC818433), MRTX-1133 (NSC836407), SN-38 (NSC673596), topotecan (NSC609699), etoposide (NSC141540), doxorubicin (NSC123127), gemcitabine (NSC613327), 5-fluorouracil (NSC19893), paclitaxel (NSC125973), vemurafenib (NSC761431), panobinostat (NSC761190), R-306465 (JNJ-16241199; NSC773264), adavosertib (NSC754352), TP-3654 (NSC805149), carboplatin (NSC241240), KSQ-4279 (NSC840948), and staurosporine (NSC755774) were obtained from the National Cancer Institute (NCI) Developmental Therapeutics Program Chemical Repository (34). The FDA-approved anticancer drug set is available from the NCI Developmental Therapeutics Program. […] The stock solutions were prepared in dimethyl sulfoxide (DMSO, Sigma-Aldrich, St. Louis, MO, cat. D2650) at 800-fold the tested concentration and stored at -70 degrees C prior to their use. All drugs and investigational agents were tested over a range starting from a high concentration at or near the clinical Cmax and decreasing in half-log increments. If the clinical Cmax for an agent had not been determined, the highest concentration tested was 10 microM.
2.3 Cell Culture. All cells were maintained in an incubator at 37 degrees C and 5% CO2 with 95% humidity. The PDC lines were cultured according to standard operating procedures established by the NCI PDMR. All PDCs were thawed and cultured in Matrigel-coated flasks prepared with a working solution of 1X Ham's F-12 nutrient mix, without supplementation (Invitrogen, cat. 11765054), 100 U/mL penicillin-streptomycin (Invitrogen, cat. 15140122), and 2.5% Matrigel (Corning Inc., cat. 354248) for the first three passages. The 857933-349-R-J2-PDC line was cultured in 6C/Colon 1B media, which includes advanced DMEM/F-12 (Thermo Fisher Scientific, cat. 12634028), 10 mM HEPES (Thermo Fisher Scientific, cat. 15630080), 1X GlutaMAX supplement (Thermo Fisher Scientific, cat. 35050061), 0.1 mg/mL primocin (InvivoGen, cat. ant-pm-2), 10% defined fetal bovine serum, heat inactivated (HyClone Laboratories Inc., cat. SH30070.03HI), 50% L-WRN conditioned media (ATCC, cat. CRL-3276), 1.25 mM N-Acetyl-L-cysteine (Sigma-Aldrich, cat. A9165), 10 mM nicotinamide (Sigma-Aldrich, cat. N0636), 1X B-27 supplement (Thermo Fisher Scientific, cat. 17504044), 1X N-2 supplement (Thermo Fisher Scientific, cat. 17502048), 10 microM Y-27632 dihydrochloride (Tocris Bioscience, cat. 1254), and 50 ng/mL human EGF recombinant protein (Thermo Fisher Scientific, cat. PHG0311). The 485176-168-R4-J1-PDC line was cultured in Panc media, which includes all 6C/Colon 1B media components plus 100 ng/mL human FGF-10 (Thermo Fisher Scientific, cat. 100-26), 500 nM SB-431542 (Selleckchem, cat. S1067), and gastrin (Tocris, cat. 3006).
[…]

[1] = second compound 0.0316 µM, first compound 0.0316 µM
[2] = second compound 0.0316 µM, first compound 0.316 µM
[3] = second compound 0.1 µM, first compound 0.0316 µM
[4] = second compound 0.1 µM, first compound 0.316 µM
[5] = second compound 0.316 µM, first compound 0.0316 µM
[6] = second compound 0.316 µM, first compound 0.316 µM
[7] = second compound 1 µM, first compound 0.0316 µM
[8] = second compound 1 µM, first compound 0.316 µM
[9] = second compound 3.16 µM, first compound 0.0316 µM
[10] = second compound 3.16 µM, first compound 0.316 µM
[11] = second compound 10 µM, first compound 0.0316 µM
[12] = second compound 10 µM, first compound 0.316 µM
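Further: spheroids exposed to compounds for one week before readout.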
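Wherever viability, T/C is given: percent viability relative to DMSO vehicle wells taken as 100%.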

Compound: Cc1cccc(N(C)C(=O)C2C(O)CCN2c2nc(C)cc(C(F)(F)F)c2C#N)c1 (centres undefined) + Cc1[nH]c2ccc(F)cc2c1-c1nc2c3cccnc3c3ncccc3c2[nH]1
- IC50 (second compound 0.0316 µM): > 10 µM
- IC50 (second compound 0.1 µM): > 10 µM
- IC50 (second compound 0.316 µM): > 10 µM
- IC50 (second compound 1 µM): > 10 µM
- IC50 (second compound 3.16 µM): > 10 µM
- IC50 (second compound 10 µM): > 10 µM
- viability, T/C [1]: 112%
- viability, T/C (second compound 0.0316 µM, first compound 0.1 µM): 113%
- viability, T/C [2]: 105%
- viability, T/C (second compound 0.0316 µM, first compound 1 µM): 120%
- viability, T/C (second compound 0.0316 µM, first compound 3.16 µM): 100%
- viability, T/C (second compound 0.0316 µM, first compound 10 µM): 91.9%
- viability, T/C [3]: 117%
- viability, T/C (second compound 0.1 µM, first compound 0.1 µM): 95.1%
- viability, T/C [4]: 118%
- viability, T/C (second compound 0.1 µM, first compound 1 µM): 104%
- viability, T/C (second compound 0.1 µM, first compound 3.16 µM): 121%
- viability, T/C (second compound 0.1 µM, first compound 10 µM): 87.7%
- viability, T/C [5]: 102%
- viability, T/C (second compound 0.316 µM, first compound 0.1 µM): 111%
- viability, T/C [6]: 102%
- viability, T/C (second compound 0.316 µM, first compound 1 µM): 113%
- viability, T/C (second compound 0.316 µM, first compound 3.16 µM): 121%
- viability, T/C (second compound 0.316 µM, first compound 10 µM): 93.4%
- viability, T/C [7]: 126%
- viability, T/C (second compound 1 µM, first compound 0.1 µM): 112%
- viability, T/C [8]: 121%
- viability, T/C (second compound 1 µM, first compound 1 µM): 111%
- viability, T/C (second compound 1 µM, first compound 3.16 µM): 102%
- viability, T/C (second compound 1 µM, first compound 10 µM): 86.7%
- viability, T/C [9]: 111%
- viability, T/C (second compound 3.16 µM, first compound 0.1 µM): 113%
- viability, T/C [10]: 107%
- viability, T/C (second compound 3.16 µM, first compound 1 µM): 110%
- viability, T/C (second compound 3.16 µM, first compound 3.16 µM): 111%
- viability, T/C (second compound 3.16 µM, first compound 10 µM): 69%
- viability, T/C [11]: 95.1%
- viability, T/C (second compound 10 µM, first compound 0.1 µM): 89.6%
- viability, T/C [12]: 101%
- viability, T/C (second compound 10 µM, first compound 1 µM): 104%
- viability, T/C (second compound 10 µM, first compound 3.16 µM): 92.5%
- viability, T/C (second compound 10 µM, first compound 10 µM): 108%

Compound: Cn1ncnc1[C@H]1c2n[nH]c(=O)c3cc(F)cc(c23)N[C@@H]1c1ccc(F)cc1 + Cc1[nH]c2ccc(F)cc2c1-c1nc2c3cccnc3c3ncccc3c2[nH]1
- IC50 (second compound 0.0316 µM): > 0.316 µM
- IC50 (second compound 0.1 µM): > 0.316 µM
- IC50 (second compound 0.316 µM): > 0.316 µM
- IC50 (second compound 1 µM): > 0.316 µM
- IC50 (second compound 3.16 µM): > 0.316 µM
- IC50 (second compound 10 µM): > 0.316 µM
- viability, T/C (second compound 0.0316 µM, first compound 0.000999 µM): 104%
- viability, T/C (second compound 0.0316 µM, first compound 0.00316 µM): 101%
- viability, T/C (second compound 0.0316 µM, first compound 0.00999 µM): 120%
- viability, T/C [1]: 87.8%
- viability, T/C (second compound 0.0316 µM, first compound 0.0999 µM): 92%
- viability, T/C [2]: 77.2%
- viability, T/C (second compound 0.1 µM, first compound 0.000999 µM): 119%
- viability, T/C (second compound 0.1 µM, first compound 0.00316 µM): 99.2%
- viability, T/C (second compound 0.1 µM, first compound 0.00999 µM): 113%
- viability, T/C [3]: 112%
- viability, T/C (second compound 0.1 µM, first compound 0.0999 µM): 91.6%
- viability, T/C [4]: 64.7%
- viability, T/C (second compound 0.316 µM, first compound 0.000999 µM): 112%
- viability, T/C (second compound 0.316 µM, first compound 0.00316 µM): 114%
- viability, T/C (second compound 0.316 µM, first compound 0.00999 µM): 97.7%
- viability, T/C [5]: 94.3%
- viability, T/C (second compound 0.316 µM, first compound 0.0999 µM): 108%
- viability, T/C [6]: 91.1%
- viability, T/C (second compound 1 µM, first compound 0.000999 µM): 120%
- viability, T/C (second compound 1 µM, first compound 0.00316 µM): 113%
- viability, T/C (second compound 1 µM, first compound 0.00999 µM): 89.5%
- viability, T/C [7]: 89.3%
- viability, T/C (second compound 1 µM, first compound 0.0999 µM): 91.1%
- viability, T/C [8]: 72.3%
- viability, T/C (second compound 3.16 µM, first compound 0.000999 µM): 106%
- viability, T/C (second compound 3.16 µM, first compound 0.00316 µM): 99.7%
- viability, T/C (second compound 3.16 µM, first compound 0.00999 µM): 96.7%
- viability, T/C [9]: 73.4%
- viability, T/C (second compound 3.16 µM, first compound 0.0999 µM): 75.3%
- viability, T/C [10]: 57.1%
- viability, T/C (second compound 10 µM, first compound 0.000999 µM): 96.1%
- viability, T/C (second compound 10 µM, first compound 0.00316 µM): 100%
- viability, T/C (second compound 10 µM, first compound 0.00999 µM): 102%
- viability, T/C [11]: 75.4%
- viability, T/C (second compound 10 µM, first compound 0.0999 µM): 86%
- viability, T/C [12]: 68.7%
